Results published in patent US20250268873A1, “COMBINATION OF DUAL ATM AND DNA-PK INHIBITORS AND IMMUNOTHERAPEUTIC AGENTS FOR USE IN CANCER THERAPY” (XRAD THERAPEUTICS, INC., priority 2021, published 2025).

Tests used:
A549 cells = experiment: Clonogenic Survival Assay in A549 cells; format: cell-based, human; details: for Fold 2 Gy / Fold 4 Gy: vs DMSO; for % survival @ 0 Gy w/out IR: no IR
Method: Human cancer cell lines, including MCF-7 human breast carcinoma cell line and A549 human lung carcinoma cell line, and HCT116 p53 wild-type and HCT116 p53−/− cell lines were obtained from ATCC. MCF7 and HCT116 cells were cultured in Dulbecco's modified Eagle's medium (DMEM (Gibco #11995-065). MDA-MB-231 human triple negative breast cancer cell line and FADU, human head and neck squamous cell carcinoma line, were obtained from Charles River Laboratories (Morrisville, NC). MDA-MB-231 and A549 cells were cultured in RPMI 1640 medium (Gibco, 11875-093). FADU cells were cultured in Minimum Essential Medium α (MEM α) (Gibco, 12571-063) supplemented with 1 mM Sodium Pyruvate (Gibco, 11360-070), 1×MEM Non-Essential Amino Acids (Gibco, 11140-050). All cell lines were supplemented with 10% fetal bovine serum (FBS) (Corning, 35-010-CV) and 1× Antibiotic-Antimycotic (Gibco #15240-062) and were grown at 37° C. in 5% CO2. All cell lines were authenticated by short tandem repeat profiling and tested negative for mycoplasma.
This assay was performed with Compound 569 as an exemplary Formula (I) compound. Cells were plated in 6-well plates at different densities: 250 cells for no IR control, 5000 cells for 2 Gy of IR and 10000 cells for 4 Gy of IR and cultured overnight. The next day, MCF7 cells were preincubated with compound 569 at 100, 250, 500, or 1000 nM or DMSO for 30 min before being exposed to increasing doses of IR (0, 2, or 4 Gy). The A549 cells were incubated with Compound 569 at 500 or 1000 nM or with DMSO for 30 min before being exposed to increasing doses of IR (0, 2, or 4 Gy). After IR, cells were continuously incubated with DMSO or compound 569 for 5 h before the culture medium was removed and cells were washed with PBS. Cells were cultured in complete medium in the absence of inhibitor for 9 days. Then cells were stained (PBS, […], 0.1% crystal violet) rinsed with water and dried.

TBK1 = experiment: Immunoblot of TBK1 phosphorylation in HCT116 cells; format: cell-based, human; details: HCT116 p53 wild-type and p53−/− cells; 1 μM single agents, combination 0.5 or 1 micromolar each
From the text: Antibodies recognizing phosphorylated/activated ATM (S1981, #ab81292) and DNA-PKcs (S2056, #ab18192) were purchased from Abcam Biotechnology (Cambridge, MA). Antibodies to ATM (#A1106) and DNA-PKcs (#ab1832) were from Sigma and Abcam, respectively. Phospho-KAP1 (S824, #A300-767A) and KAP1 (A700-014) antibodies were from Bethyl Labs (Montgomery, TX). Phospho-TBK1 (#5483), cGAS (#15102), and pSTING (S366, #19781S) antibodies were from Cell Signaling Technology (CST) (Danvers, MA). STING (PA5-23381) antibodies were from ThermoFisher Scientific (Waltham, MA), and actin (#A5316) antibodies were from Sigma. All antibodies were diluted 1:1000 with the exception of actin which was diluted 1:3000 in 1×TBST (1×TBS-10×TBS, (Corning, 46-012-CM), 0.05% Tween-20 (P7949) Sigma and 1% BSA. Secondary antibodies used were (a) Li-Cor method-Goat anti-Rabbit (926-3221) and Goat anti-Mouse (926-68020) Li-Cor (b) ECL method: Anti-rabbit IgG, HRP-linked (#7074S), CST.
Cells were pretreated with Compound 569 at 20, 100, 500, or 1000 nM or DMSO for 30 min and then irradiated with 0 or 10 Gy (XRAD 160, Precision X Ray) as shown in FIG. 1. In FIG. 3, cells were pretreated with Compound 569 at 1 μM, ATMi (AZD0156) at 1 μM, DNA-PKi (peposertib) at 1 μM as single agents or DMSO or with ATMi and DNA-PKi in combination at 0.5 micromolar each or at 1 micromolar each for 30 min and then irradiated with 0 or 10 Gy (XRAD 160, Precision X Ray) as shown in FIG. 1. One hour after IR, cells were lysed in RIPA buffer ([…], pH 8.0, 150 mM NaCl, 0.1% SDS, 0.5% sodium deoxycholate, 1% IGEPAL® CA-630 (Sigma, 18896) for 20 min at 4° C. in the presence of protease and phosphatase inhibitor cocktails (Roche, #04693159001 & #04906837001). Cell lysates were centrifuged at 13,200 g for 10 min at 4° C. and supernatants were analyzed for protein content using BCA assay (Pierce™ BCA Protein Assay Kit, cat #23227, ThermoFisher Waltham, MA 02451) and equal amounts of protein/lane were used for subsequent immunoblot analyses. Proteins were denatured by adding NuPAGE LSD Sample Buffer [4×] […]

For CC(C)NCCOc1ncc(-c2cc3c4c(cnc3cc2F)N(C)C(=O)C42CCC2)cc1NS(C)(=O)=O [Compound 569, N-(5-(7′-Fluoro-3′-methyl-2′-oxo-2′,3′-dihydrospiro[cyclobutane-1,1′-pyrrolo[2,3-c]quinolin]-8′-yl)-2-(2-(isopropylamino)ethoxy)pyridin-3-yl)methanesulfonamide], the “cellular toxicity in the absence of IR” value (A549 cells; 5-h exposure) was “without evidence of cellular toxicity”, the radiosensitization (A549 cells; 5-h exposure, 500 and 1000 nM, 0, 2, 4 Gy) was “significant degree of radiosensitization” and the “Clonogenic survival ratio 0 Gy” value (A549 cells; 569 500 nM) was 1.000. The “Clonogenic survival ratio 2 Gy” value (A549 cells; 569 500 nM) was 0.0780, the “Fold 2 Gy” value (A549 cells; 569 500 nM) was 9.3 and the “Clonogenic survival ratio 4 Gy” value (A549 cells; 569 500 nM) was 0.0044. For the same compound, the “Fold 4 Gy” value (A549 cells; 569 500 nM) was 64, the “% survival @ 0 Gy w/out IR” value (A549 cells; 569 500 nM) was 110% and the “Clonogenic survival ratio 0 Gy” value (A549 cells; 569 1000 nM) was 1.000. The “Clonogenic survival ratio 2 Gy” value (A549 cells; 569 1000 nM) was 0.0520, the “Fold 2 Gy” value (A549 cells; 569 1000 nM) was 14 and the “Clonogenic survival ratio 4 Gy” value (A549 cells; 569 1000 nM) was 0.0015. The “Fold 4 Gy” value (A549 cells; 569 1000 nM) was 188, the “% survival @ 0 Gy w/out IR” value (A549 cells; 569 1000 nM) was 103% and the “phosphorylation of TBK1” value (TBK1) was “more potent activator of TBK1 phosphorylation than either of the single target kinase inhibitors”.
